What was measured:
[1] = test system: BAF3 EGFR L858R-T790M PURO POOL; assay: Cell proliferation (MTT), BAF3 EGFR L858R-T790M; format: cell-based; settings: Ba/F3 EGFR
Procedure: (§1) We also assessed the antiproliferative activity of compounds of Formula (I) against BaF3 cells expressing the target EGFR mutations or control (i.e., cell lines expressing wildtype EGFR). Assays were conducted using MTT.

[2] = target: EGFR bearing the L858R mution (Homo sapiens, UniProt P00533, L858R); assay: Kinase inhibition, EGFR L858R; format: biochemical; settings: 10 μM ATP; 10 pt curves, 3 μM top concentration (singlicates)
Chain of EGFR bearing the L858R mution (P00533 25-1210 L858R): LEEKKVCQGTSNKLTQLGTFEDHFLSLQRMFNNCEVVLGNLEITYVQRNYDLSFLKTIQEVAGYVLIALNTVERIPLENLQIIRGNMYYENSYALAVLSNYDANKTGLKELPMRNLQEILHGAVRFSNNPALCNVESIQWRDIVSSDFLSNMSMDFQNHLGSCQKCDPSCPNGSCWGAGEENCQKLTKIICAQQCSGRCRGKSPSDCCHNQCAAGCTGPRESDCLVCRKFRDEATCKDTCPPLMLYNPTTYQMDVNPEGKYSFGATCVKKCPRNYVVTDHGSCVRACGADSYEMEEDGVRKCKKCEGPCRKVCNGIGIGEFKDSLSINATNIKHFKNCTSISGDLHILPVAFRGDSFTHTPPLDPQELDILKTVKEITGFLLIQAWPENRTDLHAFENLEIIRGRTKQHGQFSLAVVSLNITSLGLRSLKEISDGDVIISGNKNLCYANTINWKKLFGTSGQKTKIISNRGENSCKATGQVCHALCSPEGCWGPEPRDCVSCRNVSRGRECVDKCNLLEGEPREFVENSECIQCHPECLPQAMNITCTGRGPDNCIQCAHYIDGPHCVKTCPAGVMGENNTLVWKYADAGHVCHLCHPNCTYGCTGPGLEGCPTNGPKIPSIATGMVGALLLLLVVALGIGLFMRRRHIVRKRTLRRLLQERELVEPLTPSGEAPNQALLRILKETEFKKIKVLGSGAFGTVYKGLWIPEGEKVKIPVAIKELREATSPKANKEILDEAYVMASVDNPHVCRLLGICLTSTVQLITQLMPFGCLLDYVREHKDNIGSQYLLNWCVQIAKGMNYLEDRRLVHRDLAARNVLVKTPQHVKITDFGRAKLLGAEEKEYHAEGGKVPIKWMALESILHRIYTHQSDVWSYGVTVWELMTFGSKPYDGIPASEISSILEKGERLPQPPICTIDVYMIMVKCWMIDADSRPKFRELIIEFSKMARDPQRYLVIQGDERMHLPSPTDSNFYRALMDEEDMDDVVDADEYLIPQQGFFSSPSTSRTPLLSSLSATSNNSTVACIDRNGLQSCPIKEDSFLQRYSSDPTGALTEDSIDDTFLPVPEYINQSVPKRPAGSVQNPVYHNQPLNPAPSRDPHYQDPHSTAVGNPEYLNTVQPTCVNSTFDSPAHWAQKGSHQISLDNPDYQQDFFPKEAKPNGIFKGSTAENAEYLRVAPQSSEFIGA
Procedure: (§2) Kinase inhibitory activity of the compounds was measured against human EGFR (native sequence) and against EGFR bearing the L858R mution and the L858R/T790M double mutation (EGFR, L858R, and L858R/T790M, respectively in Table 1). Additional assays can be conducted with EGFR deletion mutants such as delE746-A750 with or without the additional T790M mutation. Assay conditions included 10 pt curves with 3 μM top concentration (singlicates) and 10 μM ATP.

BAF3 PARENTAL = assay: Cell proliferation (MTT), BAF3 parental; format: cell-based; settings: Mus musculus
Procedure: as §1

[3] = target: BAF3 EGFR DEL T790M PURO POOL (Homo sapiens, UniProt P00533, DEL746-750/T790M, cells depend on it); assay: Cell proliferation (MTT), BAF3 EGFR DEL T790M; format: cell-based
Chain of BAF3 EGFR DEL T790M PURO POOL (P00533 with tags, fused parts or gaps DEL746-750/T790M): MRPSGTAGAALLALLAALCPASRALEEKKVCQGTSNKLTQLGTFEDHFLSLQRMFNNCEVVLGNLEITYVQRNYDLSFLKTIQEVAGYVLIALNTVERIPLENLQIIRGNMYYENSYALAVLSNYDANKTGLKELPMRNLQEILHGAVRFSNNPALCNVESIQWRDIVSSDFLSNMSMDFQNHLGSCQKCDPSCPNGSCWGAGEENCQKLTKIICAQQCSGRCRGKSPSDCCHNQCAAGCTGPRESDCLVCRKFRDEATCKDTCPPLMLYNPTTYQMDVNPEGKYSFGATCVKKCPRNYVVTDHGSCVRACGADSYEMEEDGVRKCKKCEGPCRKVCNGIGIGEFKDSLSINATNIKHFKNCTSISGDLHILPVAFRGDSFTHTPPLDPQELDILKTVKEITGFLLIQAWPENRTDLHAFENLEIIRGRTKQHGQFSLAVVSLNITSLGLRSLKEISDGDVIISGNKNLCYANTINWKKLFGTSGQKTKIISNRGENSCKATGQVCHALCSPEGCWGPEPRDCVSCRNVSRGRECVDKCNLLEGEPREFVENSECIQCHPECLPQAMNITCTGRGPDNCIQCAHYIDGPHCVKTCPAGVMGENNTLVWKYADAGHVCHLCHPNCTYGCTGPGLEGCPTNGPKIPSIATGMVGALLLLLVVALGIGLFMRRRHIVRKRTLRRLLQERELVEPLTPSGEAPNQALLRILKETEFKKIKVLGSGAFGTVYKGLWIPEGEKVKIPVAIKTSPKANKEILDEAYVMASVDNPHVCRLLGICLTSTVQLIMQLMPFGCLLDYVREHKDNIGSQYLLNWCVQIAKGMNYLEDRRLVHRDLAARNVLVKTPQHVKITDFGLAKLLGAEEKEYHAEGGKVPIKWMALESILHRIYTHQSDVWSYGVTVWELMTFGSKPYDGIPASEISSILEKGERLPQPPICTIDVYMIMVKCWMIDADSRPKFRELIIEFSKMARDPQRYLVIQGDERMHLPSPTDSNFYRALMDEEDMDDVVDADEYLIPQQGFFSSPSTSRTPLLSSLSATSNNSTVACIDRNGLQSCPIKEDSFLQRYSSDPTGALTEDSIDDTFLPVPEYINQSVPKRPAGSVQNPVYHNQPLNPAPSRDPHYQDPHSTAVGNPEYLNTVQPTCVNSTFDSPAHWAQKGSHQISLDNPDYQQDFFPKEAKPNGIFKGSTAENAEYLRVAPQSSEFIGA
Procedure: as §1

[4] = target: human EGFR (native sequence) (Homo sapiens, UniProt P00533); assay: Kinase inhibition, human EGFR (native sequence); format: biochemical; settings: 10 μM ATP; 10 pt curves, 3 μM top concentration (singlicates)
Chain of human EGFR (native sequence) (P00533 25-1210): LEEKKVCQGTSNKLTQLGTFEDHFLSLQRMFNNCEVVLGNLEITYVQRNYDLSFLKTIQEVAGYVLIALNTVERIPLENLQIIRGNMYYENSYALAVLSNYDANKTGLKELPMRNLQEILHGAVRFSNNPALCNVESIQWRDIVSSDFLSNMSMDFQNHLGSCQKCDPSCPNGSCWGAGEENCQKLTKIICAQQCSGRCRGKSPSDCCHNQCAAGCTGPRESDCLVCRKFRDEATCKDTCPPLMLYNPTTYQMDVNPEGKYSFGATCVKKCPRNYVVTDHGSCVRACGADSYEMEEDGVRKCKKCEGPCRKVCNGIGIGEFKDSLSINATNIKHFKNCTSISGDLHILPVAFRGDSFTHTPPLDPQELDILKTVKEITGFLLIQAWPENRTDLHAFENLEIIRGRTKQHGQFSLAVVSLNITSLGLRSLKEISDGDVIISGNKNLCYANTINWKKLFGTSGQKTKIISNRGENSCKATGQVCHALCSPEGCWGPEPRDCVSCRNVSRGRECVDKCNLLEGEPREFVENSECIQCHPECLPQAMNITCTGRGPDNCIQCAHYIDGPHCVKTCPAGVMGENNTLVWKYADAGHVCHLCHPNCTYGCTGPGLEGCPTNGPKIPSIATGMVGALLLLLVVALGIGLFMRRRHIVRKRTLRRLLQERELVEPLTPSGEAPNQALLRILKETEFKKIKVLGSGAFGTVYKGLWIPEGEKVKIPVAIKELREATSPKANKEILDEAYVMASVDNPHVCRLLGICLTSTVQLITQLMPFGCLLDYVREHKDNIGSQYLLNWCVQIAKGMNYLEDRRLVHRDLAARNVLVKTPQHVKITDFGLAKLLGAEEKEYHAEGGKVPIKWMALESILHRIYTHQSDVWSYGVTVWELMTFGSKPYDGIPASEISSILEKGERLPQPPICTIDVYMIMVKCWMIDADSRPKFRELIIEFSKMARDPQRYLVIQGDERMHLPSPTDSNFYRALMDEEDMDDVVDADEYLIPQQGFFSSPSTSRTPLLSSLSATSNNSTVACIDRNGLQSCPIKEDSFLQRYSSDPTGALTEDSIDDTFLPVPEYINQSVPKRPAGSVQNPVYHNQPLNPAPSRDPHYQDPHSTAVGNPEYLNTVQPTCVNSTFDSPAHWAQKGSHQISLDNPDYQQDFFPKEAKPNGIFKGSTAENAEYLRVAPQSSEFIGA
Procedure: as §2

[5] = target: EGFR bearing the L858R/T790M double mutation (Homo sapiens, UniProt P00533, L858R/T790M); assay: Kinase inhibition, EGFR L858R/T790M; format: biochemical; settings: 10 μM ATP; 10 pt curves, 3 μM top concentration (singlicates)
Chain of EGFR bearing the L858R/T790M double mutation (P00533 25-1210 T790M/L858R): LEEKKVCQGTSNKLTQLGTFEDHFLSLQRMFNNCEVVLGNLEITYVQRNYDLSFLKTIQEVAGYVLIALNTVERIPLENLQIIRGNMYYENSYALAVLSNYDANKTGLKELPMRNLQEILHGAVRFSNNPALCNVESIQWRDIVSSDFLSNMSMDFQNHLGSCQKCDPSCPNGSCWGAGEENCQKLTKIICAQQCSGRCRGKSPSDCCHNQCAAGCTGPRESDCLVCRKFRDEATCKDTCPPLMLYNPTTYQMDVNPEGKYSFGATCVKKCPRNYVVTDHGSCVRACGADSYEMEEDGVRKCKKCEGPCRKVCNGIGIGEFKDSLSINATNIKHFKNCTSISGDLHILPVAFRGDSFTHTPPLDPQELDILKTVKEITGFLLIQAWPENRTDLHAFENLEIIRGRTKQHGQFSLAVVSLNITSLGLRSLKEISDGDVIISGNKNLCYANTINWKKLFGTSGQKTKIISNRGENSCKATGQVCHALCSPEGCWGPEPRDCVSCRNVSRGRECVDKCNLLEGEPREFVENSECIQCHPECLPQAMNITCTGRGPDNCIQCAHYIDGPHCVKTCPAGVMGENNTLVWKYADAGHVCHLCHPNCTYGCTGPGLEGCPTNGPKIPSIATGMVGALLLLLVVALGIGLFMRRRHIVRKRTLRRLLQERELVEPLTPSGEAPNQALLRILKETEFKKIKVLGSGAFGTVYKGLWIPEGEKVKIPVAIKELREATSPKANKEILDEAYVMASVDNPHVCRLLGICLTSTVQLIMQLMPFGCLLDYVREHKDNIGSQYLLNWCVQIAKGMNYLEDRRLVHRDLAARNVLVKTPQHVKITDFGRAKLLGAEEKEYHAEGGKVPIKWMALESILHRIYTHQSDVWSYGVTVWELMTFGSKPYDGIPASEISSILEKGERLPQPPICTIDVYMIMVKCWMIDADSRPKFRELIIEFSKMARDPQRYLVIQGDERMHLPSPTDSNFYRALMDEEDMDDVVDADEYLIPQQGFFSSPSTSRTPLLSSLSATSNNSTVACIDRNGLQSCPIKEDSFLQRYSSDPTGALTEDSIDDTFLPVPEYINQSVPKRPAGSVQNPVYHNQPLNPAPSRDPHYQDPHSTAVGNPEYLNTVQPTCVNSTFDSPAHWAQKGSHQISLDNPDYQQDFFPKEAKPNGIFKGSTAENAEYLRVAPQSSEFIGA
Procedure: as §2

| SMILES | IC50 [1] | IC50 [2] | IC50 (BAF3 PARENTAL) | IC50 [3] | IC50 [4] | IC50 [5] |
| --- | --- | --- | --- | --- | --- | --- |
| C=CC(=O)Nc1cc(Nc2ncc(Cl)c(Nc3ccccc3P(C)(C)=O)n2)c(OC)cc1OCCN(C)CCOC [Example 39, N-(5-((5-chloro-4-((2-(dimethylphosphoryl)phenyl)amino)pyrimidin-2-yl)amino)-4-methoxy-2-(2-((2-methoxyethyl)(methyl)amino)ethoxy)phenyl)acrylamide] | < 51 nM | < 51 nM | ≥ 250 nM | < 51 nM | < 51 nM | < 51 nM |
| C=CC(=O)Nc1cc(Nc2ncc(Cl)c(Nc3ccccc3P(C)(C)=O)n2)c(OC)cc1CCCN(CC)CC [Example 40, N-(5-((5-chloro-4-((2-(dimethylphosphoryl)phenyl)amino)pyrimidin-2-yl)amino)-2-(3-(diethylamino)propyl)-4-methoxyphenyl)acrylamide] | ≥ 250 nM | < 51 nM | ≥ 250 nM | < 51 nM | < 51 nM | < 51 nM |
| C=CC(=O)Nc1cc(Nc2ncc(Cl)c(Nc3ccccc3P(C)(C)=O)n2)c(OC)cc1CCN(CC)CC [Example 41, N-(5-((5-chloro-4-((2-(dimethylphosphoryl)phenyl)amino)pyrimidin-2-yl)amino)-2-(2-(diethylamino)ethyl)-4-methoxyphenyl)acrylamide] | 51 to 100 nM | < 51 nM | ≥ 250 nM | < 51 nM | < 51 nM | < 51 nM |
| C=CC(=O)N(C)c1ccc(OC)c(Nc2ncc(Cl)c(Nc3ccccc3P(C)(C)=O)n2)c1 [Example 44, N-(3-((5-chloro-4-((2-(dimethylphosphoryl)phenyl)amino)pyrimidin-2-yl)amino)-4-methoxyphenyl)-N-methylacrylamide] | < 51 nM | < 51 nM | ≥ 250 nM | < 51 nM | 101 to 250 nM | < 51 nM |
| COc1ccc(N2C(=O)C=CC2=O)cc1Nc1ncc(Cl)c(Nc2ccccc2P(C)(C)=O)n1 [Example 46, 1-(3-((5-chloro-4-((2-(dimethylphosphoryl)phenyl)amino)pyrimidin-2-yl)amino)-4-methoxyphenyl)-1H-pyrrole-2,5-dione] | ≥ 250 nM | 101 to 250 nM | ≥ 250 nM | ≥ 250 nM | ≥ 250 nM | ≥ 250 nM |
| C=CC(=O)Nc1ccc(OCC)c(Nc2ncc(Cl)c(Nc3ccccc3P(C)(C)=O)n2)c1 [Example 47, N-(3-((5-chloro-4-((2-(dimethylphosphoryl)phenyl)amino)pyrimidin-2-yl)amino)-4-ethoxyphenyl)acrylamide] | < 51 nM | < 51 nM | ≥ 250 nM | < 51 nM | < 51 nM | < 51 nM |
| C=CC(=O)Nc1cc(Nc2ncc(Cl)c(Nc3ccccc3P(=O)(CC)CC)n2)c(OC)cc1F [Example 48, N-(5-((5-chloro-4-((2-(diethylphosphoryl)phenyl)amino)pyrimidin-2-yl)amino)-2-fluoro-4-methoxyphenyl)acrylamide] | < 51 nM | < 51 nM | ≥ 250 nM | < 51 nM | < 51 nM | < 51 nM |
| C=CC(=O)Nc1cc(Nc2ncc(Cl)c(Nc3cccc(C)c3P(=O)(CC)CC)n2)c(OC)cc1F [Example 49, N-(5-((5-chloro-4-((2-(diethylphosphoryl)-3-methylphenyl)amino)pyrimidin-2-yl)amino)-2-fluoro-4-methoxyphenyl)acrylamide] | < 51 nM | < 51 nM | ≥ 250 nM | < 51 nM | < 51 nM | < 51 nM |
| C=CC(=O)Nc1ccc(OC)c(Nc2ncc(Cl)c(Nc3cccc(C)c3P(=O)(CC)CC)n2)c1 [Example 50, N-(3-((5-chloro-4-((2-(diethylphosphoryl)-3-methylphenyl)amino)pyrimidin-2-yl)amino)-4-methoxyphenyl)acrylamide] | < 51 nM | < 51 nM | ≥ 250 nM | < 51 nM | < 51 nM | < 51 nM |
| COc1cc(P(C)(C)=O)ccc1Nc1ncc(Cl)c(Oc2cccc(NC(=O)/C=C/CN(C)C)c2)n1 [Example 51, (E)-N-(3-((5-chloro-2-((4-(dimethylphosphoryl)-2-methoxyphenyl)amino)pyrimidin-4-yl)oxy)phenyl)-4-(dimethylamino)but-2-enamide] | ≥ 250 nM | < 51 nM | ≥ 250 nM | ≥ 250 nM | 51 to 100 nM | < 51 nM |
| C=CC(=O)Nc1cc(Nc2ncc(Cl)c(Nc3ccccc3P(=O)(CC)CC)n2)c(OC)cc1OCCN(C)C [Example 52, N-(5-((5-chloro-4-((2-(diethylphosphoryl)phenyl)amino)pyrimidin-2-yl)amino)-2-(2-(dimethylamino)ethoxy)-4-methoxyphenyl)acrylamide] | < 51 nM | < 51 nM | ≥ 250 nM | < 51 nM | < 51 nM | < 51 nM |
| C=CC(=O)Nc1ccc(OC)c(Nc2ncc(Cl)c(Nc3cccc(F)c3P(C)(C)=O)n2)c1 [Example 53, N-(3-((5-chloro-4-((2-(dimethylphosphoryl)-3-fluorophenyl)amino)pyrimidin-2-yl)amino)-4-methoxyphenyl)acrylamide] | < 51 nM | < 51 nM | ≥ 250 nM | < 51 nM | 51 to 100 nM | < 51 nM |
| C=CC(=O)Nc1ccc(OC)c(Nc2ncc(Cl)c(Nc3ccc(F)cc3P(C)(C)=O)n2)c1 [Example 54, N-(3-((5-chloro-4-((2-(dimethylphosphoryl)-4-fluorophenyl)amino)pyrimidin-2-yl)amino)-4-methoxyphenyl)acrylamide] | < 51 nM | < 51 nM | ≥ 250 nM | < 51 nM | 101 to 250 nM | < 51 nM |
| C=CC(=O)Nc1cc(Nc2ncc(Cl)c(Nc3ccc(F)cc3P(C)(C)=O)n2)c(OC)cc1F [Example 55, N-(5-((5-chloro-4-((2-(dimethylphosphoryl)-4-fluorophenyl)amino)pyrimidin-2-yl)amino)-2-fluoro-4-methoxyphenyl)acrylamide] | < 51 nM | < 51 nM | ≥ 250 nM | < 51 nM | 51 to 100 nM | < 51 nM |
| COc1cc(F)c(NC(=O)/C=C/CN(C)C)cc1Nc1ncc(Cl)c(Nc2ccccc2P(C)(C)=O)n1 [Example 56, (E)-N-(5-((5-chloro-4-((2-(dimethylphosphoryl)phenyl)amino)pyrimidin-2-yl)amino)-2-fluoro-4-methoxyphenyl)-4-(dimethylamino)but-2-enamide] | < 51 nM | < 51 nM | ≥ 250 nM | < 51 nM | 101 to 250 nM | < 51 nM |
| COCCOc1cc(OC)c(Nc2ncc(Cl)c(Nc3ccccc3P(C)(C)=O)n2)cc1NC(=O)/C=C/CN(C)C [Example 57, (E)-N-(5-((5-chloro-4-((2-(dimethylphosphoryl)phenyl)amino)pyrimidin-2-yl)amino)-4-methoxy-2-(2-methoxyethoxy)phenyl)-4-(dimethylamino)but-2-enamide] | ≥ 250 nM | < 51 nM | ≥ 250 nM | ≥ 250 nM | ≥ 250 nM | < 51 nM |
| COc1ccc(NC(=O)C2CO2)cc1Nc1ncc(Cl)c(Nc2ccccc2P(C)(C)=O)n1 (stereo not drawn) [Example 58, N-(3-((5-chloro-4-((2-(dimethylphosphoryl)phenyl)amino)pyrimidin-2-yl)amino)-4-methoxyphenyl)oxirane-2-carboxamide] | < 51 nM | < 51 nM | ≥ 250 nM | < 51 nM | < 51 nM | < 51 nM |
| COc1cc(N2CCOCC2)c(NC(=O)C2CO2)cc1Nc1ncc(Cl)c(Nc2ccccc2P(C)(C)=O)n1 (stereo not drawn) [Example 59, N-(5-((5-chloro-4-((2-(dimethylphosphoryl)phenyl)amino)pyrimidin-2-yl)amino)-4-methoxy-2-morpholinophenyl)oxirane-2-carboxamide] | 101 to 250 nM | < 51 nM | ≥ 250 nM | < 51 nM | < 51 nM | < 51 nM |
| C=CP(C)(=O)Cc1ccc(OC)c(Nc2ncc(Cl)c(Nc3ccccc3P(C)(C)=O)n2)c1 (stereo not drawn) [Example 60, (2-((5-chloro-2-((2-methoxy-5-((methyl(vinyl)phosphoryl)methyl)phenyl)amino)pyrimidin-4-yl)amino)phenyl)dimethylphosphine oxide] | ≥ 250 nM | ≥ 250 nM | ≥ 250 nM | ≥ 250 nM | ≥ 250 nM | ≥ 250 nM |
| C=CC(=O)Nc1cc(Nc2ncc(Cl)c(Nc3ccccc3P(C)(C)=O)n2)c(OC)cc1N(CC)CCN(CC)CC [Example 61, N-(5-((5-chloro-4-((2-(dimethylphosphoryl)phenyl)amino)pyrimidin-2-yl)amino)-2-((2-(diethylamino)ethyl)(ethyl)amino)-4-methoxyphenyl)acrylamide] | < 51 nM | < 51 nM | ≥ 250 nM | < 51 nM | < 51 nM | < 51 nM |

From patent publication US9834518B2, “Compounds for inhibiting cell proliferation in EGFR-driven cancers” (ARIAD Pharmaceuticals, Inc., priority 2011, dated 2017)
